Values quoted from earlier work as cited in patent US7354906B2, “Composition of anti-HIV drugs and anti-cortisol compounds and method for decreasing the side effects of anti-HIV drugs in a human” (Samaritan Pharmaceuticals, Inc., priority 1999, dated 2008).

Tests used:
[1] = 50 mg per day for 6 months, age advanced humans
[2] = hydrochloride salt
[3] = human, 20 mg/kg/day, four weeks, no increase in caloric intake
[4] = AZT recipients

In the case of `C[C@]12CC[C@H](O)CC1=CC[C@@H]1[C@@H]2CC[C@]2(C)C(=O)CC[C@@H]12` [DHEA, Dehydroepiandrosterone], the “bioavailable IGF-1” value [1] is listed as “induced an increase”, the “safety of DHEA dosages” value (dosages as high as 1.6 gm/day) is listed as “safe and without side effects” and the “mean serum total cholesterol levels” value (men, 1600 mg/day for 28 days) is listed as “fall”. For the same molecule, the “mean percent body fat decrease” value (men, 1600 mg/day for 28 days, no change in weight) was 31%.
For `CCN(CC)CCOC(=O)c1ccc(N)cc1.Cl` [Procaine hydrochloride, 2-diethylaminoethyl p-aminobenzoate hydrochloride], the solubility [2] is listed as “soluble in water and alcohol, but much less soluble in organic solvents”.
For `CC(C)Oc1ccc2c(=O)c(-c3ccccc3)coc2c1` [Ipriflavone, 7-isoproxy-isoflavone], the “increase in body weight” value [3] is listed as “about 5 pounds”.
In the case of `Cc1cn([C@H]2C[C@H](N=[N+]=[N-])[C@@H](CO)O2)c(=O)[nH]c1=O` [AZT, 3′-azido-3′-deoxythymidine], the “recipients who develop anemia” value [4] is given as 24%.
